Patent publication US6482402B1, “Antimicrobial compositions and methods” (GelTex Pharmaceuticals, Inc., priority 1999, dated 2002)
“And” between values parts separate entries of the source, which are not always exact repeats. Equal entries are not always repeated.

Key:
C. parvum oocysts [1] = assay: In vitro C. parvum infectivity in Madin Darby Bovine Kidney cells (fluorescent antibody count of infected cells); format: cell-based, Cryptosporidium parvum; settings: MDBK cells, 46 hours of infection, means of 12 high powered fields
Procedure: Activity of polyfensin compounds for Cryptosporidium parvum in vitro. Combination therapy of Polymer B with paromomycin Madin Darby Bovine Kidney cells were infected with C. parvum oocysts in the presence of media alone, paromomycin (2 and 0.25 mg/ml), Polymer B (0.01 or 0.001 mg/ml) or Polymer B (0.01 or 0.001 mg/ml) plus paromomycin at 0.25 mg/ml. After 4 hours of treatment, polymer was removed and replaced with media. After 46 hours of infection the monolayers were fixed, stained with fluorescent antibodies to cryptosporidium, and the numbers of infected cells were enumerated. Parasite numbers represent the means of 12 high powered fields, and numbers of parasites were normalized relative to treatment with media alone (arbitrarily set at 100). […] In vitro Combination therapy of Polymer A with paromomycin. Madin Darby Bovine kidney cells were infected with C. parvum oocysts in the presence of media alone, paromomycin (2 and 0.25 mg/ml), Polymer A (0.01 or 0.001 mg/ml) or Polymer A (0.0 1 or 0.00 1 mg/ml plus paromomycin at 0.25 mg/ml). After 4 hours of treatment, polymer was removed and replaced with media. After 46 hours of infection the monolayers were fixed, stained with fluorescent antibodies to cryptosporidium, and the numbers of infected cells were enumerated. Parasite numbers represent the means of 12 high powered fields, and numbers of parasites were normalized relative to treatment with media alone (arbitrarily set at 100).

C. parvum oocysts [2] = assay: In vivo oocyst shedding in C. parvum infected SCID mice; settings: SCID mice infected day 0; prm alone 500 mg/kg/day by oral gavage from day 7; fecal smears, acid fast staining; water alone 25
Procedure: In vivo activity of selected polymers in combination with parmomycin
Severe combined immunodeficient mice (SCID) were infected with C. parvum oocysts on day 0. On day 7, mice were treated with water or Polymers A, E and D by delivery in maple flavored drinking water at 2000 mg/kg/day. For each treatment, mice additionally received water or 500 mg/kg/day paromomycin (prm) by oral gavage. Oocyst shedding was quantitated in fecal smears by acid fast staining. Average numbers of oocysts shed were as follows: Treatment with water alone, 25; treatment with prm alone 12. Treatment with polymers alone gave modest changes in oocysts shedding and ranged from ˜20% reduction in oocysts; to a ˜20% increase in shedding, relative to treatment with water alone. Combination of polymers with prm gave reductions in oocysts in the range of 50-90% relative to treatment with prm alone.

`NC[C@@H]1O[C@H](O[C@H]2[C@@H](O)[C@H](O[C@@H]3[C@@H](O)[C@H](N)C[C@H](N)[C@H]3O[C@H]3O[C@H](CO)[C@@H](O)[C@H](O)[C@H]3N)O[C@@H]2CO)[C@H](N)[C@@H](O)[C@@H]1O` [paromomycin] was tested. Which “parasite numbers normalized relative to treatment with media alone (arbitrarily set at 100)” value (C. parvum oocysts [1]; paromomycin alone at 0.25 mg/ml) did it give?
Its value is 61.5 and 73.0.

What about the “parasite numbers normalized relative to treatment with media alone (arbitrarily set at 100)” value (C. parvum oocysts [1]; paromomycin alone at 2 mg/ml) of the same compound?
The value was 15.3.

What about the “parasite numbers normalized relative to treatment with media alone (arbitrarily set at 100)” value (C. parvum oocysts [1]; paromomycin alone at 2 mg/ml, listed as parmomycin) of the same compound?
The value was 15.4.

What about the “Average numbers of oocysts shed” value (C. parvum oocysts [2]) of the same compound?
The value was 12.
